The text below walks through data of patent publication US11345694B2, “Antibacterial compounds” (DISCUVA LTD., priority 2017, dated 2022).

For test [1], the system named is E. coli NCTC 13441 (UPEC). Nature of the test: MIC broth microdilution. Conditions: Escherichia coli, NCTC13441. Type of test: cell-based, Escherichia coli. On the procedure:
(§1) Minimum Inhibitory Concentrations (MICs) versus planktonic bacteria are determined by the broth microdilution procedure according to the guidelines of the Clinical and Laboratory Standards Institute (Clinical and Laboratory Standards Institute. Methods for Dilution Antimicrobial Susceptibility Tests for Bacteria That Grow Aerobically; Approved Standard-tenth Edition. CLSI document M07-A10, 2015). The broth dilution method involves a two-fold serial dilution of compounds in 96-well microtitre plates, giving a final concentration range of 0.39-200 μM and a maximum final concentration of 2% DMSO. The bacterial strains tested include Escherichia coli K12 (EC), E. coli NCTC 13441 (UPEC), Staphylococcus aureus ATCC 35556 (SA), Acinetobacter baumannii ATCC 17978 (AB), Pseudomonas aeruginosa ATCC 33359 (PA), Enterobacter cloacae DSM 30054 (Ed), Serratia marcescens SL1344 (Sm), Salmonella typhimurium XNAA5 (St), Klebsiella pneumoniae ATCC 10031 (KP2), K. pneumoniae NCTC 13438 (KP1), K. pneumoniae ATCC 700603 (KP3), Klebsiella pneumoniae ATCC 51504 (KP4), K. pneumoniae H154680676 (KP5), K. pneumoniae H154020667 (KP6), K. pneumoniae H154640784 (KP7), K. pneumoniae H154600588 (KP8), K. pneumoniae H154300688 (KP9), K. pneumoniae H151440671 (KP10). Strains are grown in cation-adjusted Müller-Hinton broth or on Luria Bertoni agar at 37° C. in an ambient atmosphere. The MIC is determined as the lowest concentration of compound that inhibits growth following a 20-24 hour incubation period.
A general note: Dilution methods test growth across graded concentrations, often in twofold steps.

The test system of test [2] is Acinetobacter baumannii ATCC 17978 (AB). Nature of the test: MIC broth microdilution. Format: cell-based. Conditions: ATCC17978. As for the experimental part:
as §1

In test [3] the test system is Escherichia coli K12 (EC). Nature of the test: MIC broth microdilution. Format: cell-based. On the procedure: as §1
Test [4] relates to Klebsiella pneumoniae ATCC 10031 (KP2). Nature of the test: MIC broth microdilution. Conditions: ATCC10031. Format: cell-based. As for the experimental part: as §1
Test [5] relates to Pseudomonas aeruginosa ATCC 33359 (PA). As to the kind of experiment: MIC broth microdilution. Format: cell-based. The note with it: ATCC33359. On the procedure:
as §1

For test [6], the system named is Staphylococcus aureus ATCC 35556 (SA). Nature of the test: MIC broth microdilution. Conditions: ATCC35556. Format: cell-based. As for the experimental part:
as §1

In test [7] the test system is K. pneumoniae NCTC 13438 (KP1). As to the kind of experiment: MIC broth microdilution. Type of test: cell-based, Klebsiella pneumoniae. Conditions: Klebsiella pneumoniae, NCTC13438. As for the experimental part: as §1
The test system of test [8] is human hepatocarcinoma cell line ATCC HB-8065 (HepG2). Nature of the test: Human cell viability (CellTiter-Glo). Format: cell-based. Conditions: Homo sapiens; HepG2 cells, 24 h incubation, CellTiter-Glo luminescence, 0.2-100 μM; read-out: IC50 values against the HepG2 cell line. On the procedure:
Compounds are assessed for potential non-specific cytotoxic effects against the human hepatocarcinoma cell line ATCC HB-8065 (HepG2). HepG2 cells are seeded at 20,000 cells/well in 96-well microtitre plates in minimal essential medium (MEM) supplemented with a final concentration of 10% FBS. After 24 h, compound dilutions are prepared in MEM supplemented with a final concentration of 1% FBS, and added to the cells. Compounds are tested in two-fold serial dilutions over a final concentration range of 0.2-100 μM in a final DMSO concentration of 1% vol/vol. Thioridazine is used as a positive control. Cells are incubated with compound at 37° C. and 5% CO2 for a further 24 h, after which time the CellTiter-Glo reagent (Promega) is added. Luminescence is measured on a Perkin Elmer Envision plate reader. Data are analysed using a 4 parameter logistic regression to determine the concentration of compound that inhibits cell viability by fifty percent (IC50).
In general terms: Cellular ATP, detected with luciferase, serves as a proxy for viable cell number.

In brackets after ≈: the same amount, converted by molar mass. A value given as a limit tells only on which side of the number the result lay.

Usually MIC stands for the least concentration at which growth counts as inhibited. Broadly, the IC50 is the midpoint of a concentration-inhibition curve. Turning to `COc1ccc(-c2nc(N)[nH]c2-c2ccnc(C)c2)cn1` [Example 2, 4-(6-Methoxypyridin-3-yl)-5-(2-methylpyridin-4-yl)-1H-imidazol-2-amine], the minimal inhibitory concentration (MIC) in test [1] was 1 to 10 µM (≈ 0.281 to 2.81 µg/mL); in test [2], more than 100 µM; in test [3], 1 to 10 µM (≈ 0.281 to 2.81 µg/mL); in test [4], not above 1 µM; in test [5], more than 100 µM; in test [6], more than 100 µM. In test [7], the MIC is 10 to 100 µM (≈ 2.81 to 28.1 µg/mL). Moreover, the IC50 in test [8] is more than 100 µM.

`Cc1cc(-c2[nH]c(N)nc2-c2ccc3c(c2)OCCCO3)ccn1` [Example 5, 4-(3,4-dihydro-2H-benzo[b][1,4]dioxepin-7-yl)-5-(2-methylpyridin-4-yl)-1H-imidazol-2-amine]: the MIC in test [1] was 1 to 10 µM (≈ 0.322 to 3.22 µg/mL); in test [2], more than 100 µM; in test [3] it was 1 to 10 µM (≈ 0.322 to 3.22 µg/mL); in test [4], not above 1 µM; in test [5], more than 100 µM; in test [6], more than 100 µM. Further, in test [7], the minimal inhibitory concentration (MIC) lay within 10 to 100 µM (≈ 3.22 to 32.2 µg/mL). Besides, in test [8], the IC50 is more than 100 µM.

Take `COc1cc(-c2[nH]c(N)nc2-c2ccnc(C)c2)ccc1F` [Example 6, 5-(4-Fluoro-3-methoxyphenyl)-4-(2-methylpyridin-4-yl)-1H-imidazol-2-amine]: the MIC in test [1] was 1 to 10 µM (≈ 0.298 to 2.98 µg/mL); in test [2], more than 100 µM; in test [3], 1 to 10 µM (≈ 0.298 to 2.98 µg/mL); in test [4], not above 1 µM; in test [5], more than 100 µM; in test [6], more than 100 µM. Moreover, the minimum inhibitory concentration (MIC) in test [7] was in the range of 10 to 100 µM (≈ 2.98 to 29.8 µg/mL). Besides, the IC50 in test [8] is more than 100 µM.

For the compound `Nc1cc(-c2[nH]c(N)nc2-c2ccc3c(c2)CCO3)ccn1` [Example 8, 4-(2-Amino-4-(2,3-dihydrobenzofuran-5-yl)-1H-imidazol-5-yl)pyridin-2-amine], the MIC in test [1] is not above 1 µM; in test [2] it was more than 100 µM; in test [3], not above 1 µM; in test [4] it was not above 1 µM; in test [5], more than 100 µM; in test [6], more than 100 µM. The same compound yielded a minimum inhibitory concentration (MIC) in test [7] of 10 to 100 µM (≈ 2.93 to 29.3 µg/mL). The IC50 in test [8] was more than 100 µM.

Regarding `Cc1cc(-c2nc(N)[nH]c2-c2ccc(C(=O)N(C)C)cc2)ccn1` [Example 10, 4-(2-Amino-4-(2-methylpyridin-4-yl)-1H-imidazol-5-yl)-N,N-dimethylbenzamide], the MIC was more than 100 µM in test [1]; more than 100 µM in test [2]; more than 100 µM in test [3]; 1 to 10 µM (≈ 0.321 to 3.21 µg/mL) in test [4]; more than 100 µM in test [5]; more than 100 µM in test [6]. In test [7], this compound displayed an MIC of more than 100 µM. In test [8], the IC50 is more than 100 µM.

Take `COc1ccc(-c2[nH]c(N)nc2-c2ccnc(C)c2)cc1F` [Example 11, 5-(3-Fluoro-4-methoxyphenyl)-4-(2-methylpyridin-4-yl)-1H-imidazol-2-amine]: the MIC in test [1] is 1 to 10 µM (≈ 0.298 to 2.98 µg/mL); in test [2], more than 100 µM; in test [3], 1 to 10 µM (≈ 0.298 to 2.98 µg/mL); in test [4], not above 1 µM; in test [5], more than 100 µM; in test [6] it was more than 100 µM. Further, the minimal inhibitory concentration (MIC) in test [7] is 10 to 100 µM (≈ 2.98 to 29.8 µg/mL). For the same compound, the IC50 in test [8] was more than 100 µM.

Consider `Cc1cc(-c2nc(N)[nH]c2-c2ccc(OCC3CC3)c(F)c2)ccn1` [Example 13, 5-(4-(Cyclopropylmethoxy)-3-fluorophenyl)-4-(2-methylpyridin-4-yl)-1H-imidazol-2-amine], for which the minimum inhibitory concentration (MIC) is 1 to 10 µM (≈ 0.338 to 3.38 µg/mL) in test [1]; more than 100 µM in test [2]; 1 to 10 µM (≈ 0.338 to 3.38 µg/mL) in test [3]; not above 1 µM in test [4]; more than 100 µM in test [5]; more than 100 µM in test [6]. Also, the MIC in test [7] lay within 10 to 100 µM (≈ 3.38 to 33.8 µg/mL). In addition, the IC50 in test [8] was 25 to 100 µM.

For the compound `Cc1cc(-c2nc(N)[nH]c2-c2ccc(OC3CC3)c(F)c2)ccn1` [Example 14, 5-(4-Cyclopropoxy-3-fluorophenyl)-4-(2-methylpyridin-4-yl)-1H-imidazol-2-amine], the MIC in test [1] was not above 1 µM; in test [2], more than 100 µM; in test [3], not above 1 µM; in test [4], not above 1 µM; in test [5], more than 100 µM; in test [6] it was more than 100 µM. The minimal inhibitory concentration (MIC) in test [7] was in the range of 1 to 10 µM (≈ 0.324 to 3.24 µg/mL). Also, the IC50 in test [8] is more than 100 µM.
